The structures appear in SMILES notation.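 How tested: cells in 96-well plates exposed to compound for 48 hours at five concentrations. Abbreviation: GI50, concentration required for 50% inhibition of growth. TGI: concentration producing complete growth inhibition.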 A value given as a limit tells only on which side of the number the result lay.

Some test systems named below: HOP-92 NSCLC; TK-10 renal; NCI-H460 lung; CCRF-CEM leukemia; SNB-19 CNS; K-562 leukemia; NCI-H522 lung; MDA-MB-231 breast; SK-OV-3 ovarian; KM12 colon.
What all share (test): NCI tumour cell line growth inhibition, 48 h

Take `C=C1C(=O)O[C@H]2[C@H]1CC/C(CNC(=O)/C=C/c1ccc(Cl)cc1Cl)=C\CC[C@@]1(C)O[C@@H]21`: the GI50 with HOP-92 NSCLC is 0.483 µM; with TK-10 renal, 1.55 µM; with NCI-H460 lung, 1.76 µM; in the assay on CCRF-CEM leukemia, 0.304 µM; with SNB-19 CNS, 3.24 µM; in the assay with K-562 leukemia, 0.696 µM. For the same compound, the GI50 was 1.09 µM in the assay with NCI-H522 lung, 1.35 µM in the assay with MDA-MB-231 breast, 3.33 µM in the assay on SK-OV-3 ovarian and 1.62 µM in the assay on KM12 colon. For the same compound, the TGI was 2.52 µM with HOP-92 NSCLC; 2.9 µM with TK-10 renal; 3.52 µM in the assay with NCI-H460 lung; 1.19 µM in the assay with CCRF-CEM leukemia; 14.2 µM in the assay on SNB-19 CNS; 4.16 µM in the assay with K-562 leukemia. The TGI is 2.51 µM in the assay with NCI-H522 lung, 3.18 µM in the assay with MDA-MB-231 breast, 13 µM with SK-OV-3 ovarian and 3.03 µM with KM12 colon.
Turning to `Cc1ccccc1NC(=O)c1cc2ccccc2cc1O`, the GI50 in the assay with HOP-92 NSCLC was 2.39 µM; in the assay on TK-10 renal, 4.2 µM; in the assay on NCI-H460 lung it was 2.77 µM; in the assay on SNB-19 CNS, 4.6 µM; with K-562 leukemia, 5.23 µM; in the assay with NCI-H522 lung, 2.62 µM. For the same compound, the figures for the GI50 with MDA-MB-231 breast, in the assay on SK-OV-3 ovarian and in the assay with KM12 colon were 3.17 µM, 2.64 µM and 3.36 µM, respectively. Moreover, the TGI in the assay with HOP-92 NSCLC is 5.94 µM; in the assay with TK-10 renal, more than 100 µM; in the assay on NCI-H460 lung, 7.29 µM; in the assay on SNB-19 CNS, more than 100 µM; in the assay with K-562 leukemia, more than 100 µM; with NCI-H522 lung, 9.39 µM. In addition, the TGI with MDA-MB-231 breast is 15.2 µM; in the assay with SK-OV-3 ovarian, 14.6 µM; with KM12 colon it was more than 100 µM.
Turning to `O=c1cc(-c2ccc(O)cc2)oc2cc(O)cc(O)c12`, the TGI with HOP-92 NSCLC is 56.6 µM; in the assay with TK-10 renal it was more than 100 µM; in the assay on NCI-H460 lung it was more than 100 µM; with CCRF-CEM leukemia it was more than 100 µM; in the assay on SNB-19 CNS it was more than 100 µM; in the assay on K-562 leukemia it was more than 100 µM. The TGI was determined as 64.5 µM in the assay with NCI-H522 lung, 89.8 µM in the assay on SK-OV-3 ovarian and 82.9 µM in the assay on KM12 colon.
Regarding `Nc1ccccc1C#C/C=C\C#Cc1ccccc1F`, the GI50 with HOP-92 NSCLC is 17.9 µM; in the assay on TK-10 renal, 6.42 µM; in the assay with NCI-H460 lung it was 6.17 µM; in the assay on CCRF-CEM leukemia it was 0.729 µM; in the assay with K-562 leukemia it was 3.38 µM; in the assay on NCI-H522 lung, 6.74 µM. Moreover, the GI50 in the assay on MDA-MB-231 breast was 10.1 µM; in the assay with SK-OV-3 ovarian it was 16.7 µM; with KM12 colon, 2.1 µM. The TGI is more than 100 µM with HOP-92 NSCLC; 25.6 µM in the assay with TK-10 renal; 21.2 µM in the assay on NCI-H460 lung; 7.14 µM in the assay with CCRF-CEM leukemia; more than 100 µM with K-562 leukemia; 23.5 µM with NCI-H522 lung. Besides, the TGI in the assay with MDA-MB-231 breast came out at 25.4 µM; in the assay with SK-OV-3 ovarian, 46 µM; in the assay with KM12 colon, 11 µM.
With `CCOC(=O)C1Oc2ccc([N+](=O)[O-])cc2C1(C)O` (stereo not given), the TGI in the assay on HOP-92 NSCLC, in the assay with TK-10 renal, in the assay on NCI-H460 lung, with CCRF-CEM leukemia, with SNB-19 CNS and in the assay on K-562 leukemia was more than 100 µM each time. The TGI with NCI-H522 lung, in the assay on SK-OV-3 ovarian and in the assay with KM12 colon was more than 100 µM in each case.
Take `Cn1c2ccccc2c2[nH]c3ccccc3c(=O)c21`: the TGI in the assay on HOP-92 NSCLC, with TK-10 renal, in the assay on NCI-H460 lung, with CCRF-CEM leukemia, in the assay with SNB-19 CNS and with K-562 leukemia was more than 100 µM throughout. Moreover, the TGI in the assay on MDA-MB-231 breast, in the assay on SK-OV-3 ovarian and in the assay with KM12 colon was more than 100 µM throughout.
Consider `CCOC(=O)/C=C1\Oc2ccccc2C1(C)O` (stereo not given), for which the TGI with HOP-92 NSCLC, in the assay on TK-10 renal, with NCI-H460 lung, in the assay with CCRF-CEM leukemia, with SNB-19 CNS and with K-562 leukemia was more than 100 µM each time. For the same compound, the TGI in the assay on NCI-H522 lung, in the assay on SK-OV-3 ovarian and in the assay with KM12 colon was more than 100 µM in each case.
In the case of `O=CN1N=C(c2ccc(Nc3ccnc4cc(Cl)ccc34)cc2)CC1c1ccc(Cl)cc1` (stereo not given), the GI50 with HOP-92 NSCLC is more than 100 µM; in the assay with TK-10 renal, 9.57 µM; in the assay with NCI-H460 lung, 0.592 µM; in the assay on SNB-19 CNS, 1.92 µM; with NCI-H522 lung, 0.386 µM; in the assay with MDA-MB-231 breast it was 1.43 µM. In the assay with KM12 colon, the GI50 is 0.538 µM. For the same compound, the TGI was more than 100 µM in the assay with HOP-92 NSCLC; more than 100 µM in the assay on TK-10 renal; more than 100 µM with NCI-H460 lung; more than 100 µM in the assay on SNB-19 CNS; 30.2 µM in the assay on NCI-H522 lung; more than 100 µM in the assay with MDA-MB-231 breast. For the same compound, the TGI in the assay on KM12 colon was more than 100 µM.
With `O=C(CC(=O)c1ccccc1)C(=O)NC12CC3CC(CC(C3)C1)C2`, the TGI in the assay on HOP-92 NSCLC was more than 100 µM; with TK-10 renal, more than 100 µM; in the assay on NCI-H460 lung, more than 56.9 µM; in the assay with CCRF-CEM leukemia, more than 80.4 µM; in the assay on SNB-19 CNS, more than 100 µM; in the assay on K-562 leukemia it was more than 100 µM. Further, the TGI in the assay on NCI-H522 lung, with SK-OV-3 ovarian and in the assay with KM12 colon was more than 100 µM in each case.
Turning to `COc1ccc(OC)c(/C=N/N=C2\C(=O)Nc3c(Cl)cc(Cl)cc32)c1`, the TGI in the assay with HOP-92 NSCLC, in the assay on TK-10 renal, in the assay with NCI-H460 lung, in the assay with CCRF-CEM leukemia, with SNB-19 CNS and in the assay with K-562 leukemia was more than 100 µM in each case. The TGI with MDA-MB-231 breast, in the assay with SK-OV-3 ovarian and with KM12 colon was more than 100 µM in each case.
For the compound `CCCC(CCC)C(=O)OCC1(CO)C/C(=C\c2ccc(C(F)(F)F)cc2)C(=O)O1` (stereo not given), the GI50 with TK-10 renal was 5.62 µM; in the assay on NCI-H460 lung, 3.04 µM; with SNB-19 CNS it was 16.8 µM; in the assay on K-562 leukemia, 0.823 µM; with NCI-H522 lung, 15.1 µM; with MDA-MB-231 breast it was 7.66 µM. The results for the GI50 in the assay on SK-OV-3 ovarian and in the assay with KM12 colon were 19.7 µM and 13.7 µM, respectively. Moreover, the TGI is 20.3 µM with TK-10 renal; 21.7 µM in the assay on NCI-H460 lung; 30.6 µM in the assay with SNB-19 CNS; 20.6 µM with K-562 leukemia; 31.4 µM in the assay with NCI-H522 lung; 22.9 µM with MDA-MB-231 breast. The values for the TGI in the assay with SK-OV-3 ovarian and with KM12 colon were 34 µM and 28.6 µM, respectively.

These data come from PubChem BioAssay (NCI).
